From PubChem BioAssay AID743128 (Broad Institute, 2013)
Several values for one entry are separate records, joined by “and”; a condition that tells them apart may be missing. Equal values may be shown once. Activity calls are given as the source filed them.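 The calls were made as follows: active = compounds lowering the signal whose fitted half-maximal concentration is at most twice the top tested dose; inconclusive = flat curve with 30 to 70% inhibition, or poor fit; inactive = the rest.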

Tests used:
[1] = test system: C. neoformans growth, alamar blue, 24 h; assay: antifungal activity, alamar blue, dry powder, counter-screen for C. neoformans cell wall antifungals, dose response (AID 743128)
[2] = as above; details: C. neoformans growth, alamar blue, 24 h; at 35 µM (top of the series)

Compound | AC50 [1] | activity change, negative = inhibition [2]
COC(=O)C1=C(C)N(Cc2ccc(F)cc2)C(=S)NC1c1cccc(F)c1 (configuration not stated) | 18.3 µM | 
Cc1ccccc1OCCn1c(=S)[nH]c2ccccc21 | 8.04 µM | 
Fc1cccc2c1[nH]c(=S)n2CCOc1ccccc1 | 25.4 µM | 
COC(=O)C1=C(C)N(Cc2ccccc2)C(=S)NC1c1ccc(Br)cc1 (configuration not stated) | 8.1 µM | 
CCOC(=O)c1c(-c2ccc(OC)cc2)csc1NC(=O)CN(C)CC(=O)N(C)C |  | -14.4% (inactive)
Cc1ccc2c(c1)[nH]c(=S)n2CCOc1ccccc1 | 24.3 µM | 
Cc1ccc(OCCn2c(SCCO)nc3ccccc32)c(C(C)C)c1 | 25.1 µM | 
CCOC(=O)c1c(-c2ccc(C(C)(C)C)cc2)csc1NC(=O)CN1CCN(CC)CC1 | 15.7 µM | 
COC(=O)C1=C(C)N(Cc2ccc(Br)cc2)C(=S)NC1c1ccc(OC)cc1 (configuration not stated) | 9.31 µM | 
COC(=O)C1=C(C)N(Cc2ccc(Br)cc2)C(=S)NC1c1ccc(F)cc1 (configuration not stated) | 4.9 µM | 
CCOC(=O)c1c(NC(=O)CN2CCN(C)CC2)sc(C)c1-c1ccc(C)cc1 | 25.7 µM | 
CCOC(=O)c1c(-c2ccc(F)cc2)csc1NC(=O)CN1CCN(C)CC1 |  | -11.2% (inactive)
CCOC(=O)c1c(-c2ccc(C(C)(C)C)cc2)csc1NC(=O)CN1CCN(C)CC1 | 15 µM | 
c1ccc(OCCn2cnc3ccccc32)cc1 |  | -10.7% (inactive)
Fc1ccccc1OCCn1c(=S)[nH]c2ccccc21 | 25.4 µM | 
CCOC(=O)c1c(-c2ccc(-c3ccccc3)cc2)csc1NC(=O)CNCCN(C)C | 21.7 µM | 
COC(=O)C1=C(C)N(Cc2ccc(Cl)cc2)C(=S)NC1c1ccc(Br)cc1 (configuration not stated) | 1.97 µM | 
CCOC(=O)c1c(NC(=O)CNCCN(C)C)sc(C)c1-c1ccccc1 |  | -16.3% (inactive)
S=c1[nH]c2ccccc2n1CCOc1ccc(Cl)cc1 | 10.9 µM | 
CCOc1ccc(OCCn2c(=S)[nH]c3ccccc32)cc1 | 25.5 µM | 
Cc1ccc(OCCn2c(=S)[nH]c3ccccc32)cc1 | 9.48 µM | 
S=c1[nH]c2cccc(Cl)c2n1CCOc1ccccc1 | 6.35 µM | 
Cc1ccc(OCCn2c(=S)[nH]c3ccccc32)c(C(C)C)c1 | 5.33 µM and 5.68 µM | 
O=c1[nH]c2ccccc2n1CCOc1ccccc1 |  | -1.57% (inactive) and -23.3% (inactive)
Cc1ccc(C(C)C)c(OCCn2c(=S)[nH]c3ccccc32)c1 | 4.14 µM | 
Cc1cccc(OCCn2c(=S)[nH]c3cc(C(F)(F)F)ccc32)c1 |  | 8.48% (inactive)
S=c1[nH]c2ccccc2n1CCOc1ccccc1 | 24.9 µM | 
